pIC50: −log10 of the molar value.
What was measured:
[1] = tested on: HTT mRNA; assay: Splicing RT-qPCR assay, HTT canonical (CJ) and alternative (AJ) junction mRNA; type: cell-based; conditions: Homo sapiens, A673 or K562 cells, 24 hours; for pIC50: decrease in canonical junction mRNA; for AC50: increase in alternative junction mRNA
Procedure: (§1) Compounds described herein were used to modulate RNA transcript abundance in cells. The expression of a target mRNA was measured by detecting the formation of an exon-exon junction in the canonical transcript (CJ). A compound mediated exon-inclusion event was detected by observing an increase in formation of a new junction with an alternative exon (AJ). Real-time qPCR assays were used to detect these splicing switches and interrogate the potency of various compounds towards different target genes. A high-throughput real time quantitative PCR (RT-qPCR) assay was developed to measure these two isoforms of the mRNA (CJ and AJ) for exemplary genes, such as HTT, SMN2, and MYB, together with a control housekeeping gene, GAPDH or GUSB or PPIA, used for normalization. Briefly, the A673 or K562 cell line was treated with various compounds described herein (e.g., compounds of Formula (I), (I), or (III)). After treatment, the levels of the HTT, MYB, or SMN2 mRNA targets were determined from each sample of cell lysate by cDNA synthesis followed by qPCR.
(§2) • Cells-to-CT 1-step kit: ThermoFisher A25602, Cells-to-CT lysis reagent: ThermoFisher 4391851C, TaqMan™ Fast Virus 1-Step Master Mix: ThermoFisher 4444436 • GAPDH: VIC-PL, ThermoFisher 4326317E (Assay: Hs99999905_ml)—used for K562/suspension cell lines • GUSB: VIC-PL, ThermoFisher 4326320E (Assay: Hs99999908_ml)—used for K562/suspension cell lines • PPIA: VIC-PL, ThermoFisher 4326316E (Assay: Hs99999904_ml)—used for A673/adherent cell lines
(§3) The A673 cell line was cultured in DMEM with 10% FBS. Cells were diluted with full growth media and plated in a 96-well plate (15,000 cells in 100 ul media per well). The plate was incubated at 37° C. with 5% CO2 for 24 hours to allow cells to adhere. An 11-point 3-fold serial dilution of the compounds was made in DMSO then diluted in media in an intermediate plate. Compounds were transferred from the intermediate plate to the cell plate with the top dose at a final concentration of 10 uM in the well. Final DMSO concentration was kept at or below 0.25%. The cell plate was returned to the incubator at 37° C. with 5% CO2 for an additional 24 hours.
(§4) The K562 cell line was cultured in IMDM with 10% FBS. For K562, cells were diluted with full growth media and plated in either a 96-well plate (50,000 cells in 50 uL media per well) or a 384-well plate (8,000-40,000 cells in 45 uL media per well). An 11-point 3-fold serial dilution of the compounds were made in DMSO then diluted in media in an intermediate plate. Compound was transferred from the intermediate plate to the cell plate with the top dose at a final concentration of 10 uM in the well. Final DMSO concentration was kept at or below 0.25%. Final volume was 100 uL for 96-well plate and 50 uL for 384-well plate. The cell plate was then placed in an incubator at 37° C. with 5% CO2 for 24 hours.
(§5) The cells were then gently washed with 50 uL-100 uL cold PBS before proceeding to addition of lysis buffer. 30 uL-50 uL of room temperature lysis buffer with DNAse I (and optionally RNAsin) was added to each well. Cells were shaken/mixed thoroughly at room temperature for 5-10 minutes for lysis to take place and then 3 uL-5 uL of room temperature stop solution was added and wells were shaken/mixed again. After 2-5 minutes, the cell lysate plate was transferred to ice for RT-qPCR reaction setup. The lysates could also be frozen at −80° C. for later use.
(§6) In some cases, a direct lysis buffer was used. An appropriate volume of 3×lysis buffer (10 mM Tris, 150 mM NaCl, 1.5%-2.5% Igepal and 0.1-1 U/uL RNAsin, pH 7.4) was directly added to either K562 or A673 cells in media and mixed by pipetting 3 times. The plates were then incubated at room temperature with shaking/rocking for 20-50 minutes to allow for lysis to take place. After this time, the cell lysate plate was transferred to ice to set up for the RT-qPCR reactions. The lysates could also be frozen at −80° C. for later use. […]

[2] = tested on: MYB mRNA; assay: Gene panel canonical junction qPCR assay, MYB CJ mRNA decrease; type: cell-based, human; conditions: Homo sapiens, canonical junction qPCR, read-out: MYB IC50 (decrease in CJ mRNA levels)
Procedure: as §1
(§7) The data analysis was performed by first determining the ΔCt vs the housekeeper gene. This ΔCt was then normalized against the DMSO control (ΔΔCt) and converted to RQ (relative quantification) using the 2^(−ΔΔCt) equation. The RQ were then converted to a percentage response by arbitrarily setting an assay window of 3.5 and 4.0 ΔCt for HTT-CJ and MYB-CJ respectively and an assay window of 9 and 3 ΔCt for HTT-AJ and MYB-AJ in 96 well format (50,000 K562 cells/well and 15,000 A673 cells per well) and an assay window of 3 and 4 ΔCt for HTT-CJ and MYB-CJ respectively and an assay window of 5 and 3 ΔCt for HTT-AJ and MYB-AJ respectively in 384 well format (8,000 K562 cells/well example). […] The percentage response was then fitted to the 4 parametric logistic equation to evaluate the concentration dependence of compound treatment. The increase in AJ mRNA is reported as AC50 (compound concentration having […] in AJ increase) while the decrease in CJ mRNA levels is reported as IC50 (compound concentration having 50) response in CJ decrease).
(§8) Additional studies were carried out for a larger panel of genes using the protocol provided above. The junction between flanking upstream and downstream exons was used to design canonical junction qPCR assays. At least one of the forward primer, reverse primer or the CY5-labeled 5′ nuclease probe (with 3′ quencher such as ZEN/Iowa Black FQ) was designed to overlap with the exon junction to capture the CJ mRNA transcript. BLAST was used to confirm the specificity of the probeset and parameters such as melting temperature, GC content, amplicon size, and primer dimer formation are considered during their design. Data for the decrease in CJ mRNA levels for four exemplary genes (HTT, SMN2, MYB, and Target C) analyzed in this panel are reported as IC50 (compound concentration having […] in CJ decrease).
(§9) A summary of the results from the panel is illustrated in Tables 5A and 51B, wherein “A” represents an IC50 of less than 100 nM; “B” represents an IC50 of between 100 nM and 1 μM; and “C” represents an IC50 of between 1 μM and 10 μM; and “D” represents an IC50 of greater than 10 μM.

[3] = tested on: MYB mRNA; assay: Splicing RT-qPCR assay, MYB canonical (CJ) and alternative (AJ) junction mRNA; type: cell-based; conditions: Homo sapiens, A673 or K562 cells, 24 hours; for pIC50: decrease in canonical junction mRNA; for AC50: increase in alternative junction mRNA
Procedure: as §1, §2, §3, §4, §5, §6

[4] = tested on: HTT mRNA; assay: Gene panel canonical junction qPCR assay, HTT CJ mRNA decrease; type: cell-based, human; conditions: Homo sapiens, canonical junction qPCR, read-out: HTT IC50 (decrease in CJ mRNA levels)
Procedure: as §1, §7, §8, §9

[5] = tested on: Target C mRNA; assay: Gene panel canonical junction qPCR assay, Target C CJ mRNA decrease; type: cell-based; conditions: Homo sapiens, canonical junction qPCR, read-out: Target C IC50 (decrease in CJ mRNA levels)
Procedure: as §1, §7, §8, §9

[6] = tested on: SMN2 mRNA; assay: Gene panel canonical junction qPCR assay, SMN2 CJ mRNA decrease; type: cell-based, human; conditions: Homo sapiens, canonical junction qPCR, read-out: SMN2 IC50 (decrease in CJ mRNA levels)
Procedure: as §1, §7, §8, §9

[7] = tested on: HiBiT-tagged MYB protein; assay: HiBiT protein abundance assay, MYB (K562 HiBiT knock-in cells); type: cell-based, human; conditions: 24 hours
Procedure: (§10) Compounds described herein were used to screen for effects on quantitative protein abundance using a HiBit assay system (Promega). Quantitative protein abundance was determined by measuring the protein levels of HiBit-tagged protein targets expressed in cell culture via luminescence using the Nano-Glo HiBiT Lytic Detection System, which uses a split complementation assay format to reconstitute NanoBiT enzyme to generate a luminescent signal. A protein abundance assay was developed such that endogenous protein targets could be modified with the HiBiT peptide tag and their abundance could be assessed after compound treatment. Briefly, K562 cell lines containing a HiBiT-modification were treated with various compounds described herein (e.g., compounds of Formulas (I), (II), or (III)). After treatment for 24 hours, the protein abundance of a specific target was determined by measuring luminescence.
(§11) • Promega Nano-Glo HiBiT Lytic Detection System (cat #N3030) • Corning 384-well TC-treated microplates (cat #3570) • Synthego Engineered Cells Knock-In Clones
(§12) Cells were maintained in IMDM with 10% FBS. Before the assay, cells were diluted with […] growth media (IMDM+1% FBS media) and were seeded in a 384-well plate at a density of 10000 cells/well (for each cell line listed in Table 6). Each compound was prepared as a 10-point 3-fold serial dilution in DMSO with the top dose at a final concentration of 10 μM in the well. Unmodified K562 cells were added at the previously specified density with DMSO to serve as an assay baseline and positive control (PC) and DMSO only with the respective modified cell lines was added to the negative control (NC) columns. Final DMSO concentration was kept at or below 0.25%. Treated cell plates were placed in an incubator at 37° C. with 5% CO2 for 24 hours. After 24 hours, 25 μL of Complete HiBit Lytic reagent was added to each well at room temperature (e.g. one plate requiring 10 mL Lytic Buffer, 100 μL LgBiT Protein, 200 μL Lytic Substrate), shaken for 5 minutes at 600 RPM, then left to sit for 10 minutes for signal to stabilize before reading on a Spark Cyto plate reader (Tecan) with a 500 ms measurement time.
(§13) To determine compound effects on protein abundance of each target in Table 6, the percent response for each respective cell line was calculated at each compound concentration as follows:
(§14) For the normalized response at each concentration, a four-parameter logistical regression was fit to the data and the response was interpolated at the 50% value to determine a concentration for protein abundance at 50% (IC50) the untreated control.

[8] = tested on: Target C; assay: HiBiT protein abundance assay, Target C (K562 HiBiT knock-in cells); type: cell-based, human; conditions: 24 hours
Procedure: as §11, §12, §13, §14

[9] = tested on: HiBiT-tagged HTT protein; assay: HiBiT protein abundance assay, HTT (K562 HiBiT knock-in cells); type: cell-based, human; conditions: 24 hours
Procedure: as §10, §11, §12, §13, §14

Row | Compound | pIC50 [1] | pIC50 [2] | pIC50 [3] | pIC50 [4] | pIC50 [5] | pIC50 [6] | pIC50 [7] | pIC50 [8] | pIC50 [9] | AC50 [1] [nM] | AC50 [3] [nM]
1 | Cc1cn2cc(NC(=O)c3ccc(N4CCN[C@@H](C)C4)c4ccnnc34)cc(F)c2n1 [Compound 147] | 5.00 to 6.00 | > 7.00 | > 7.00 | 5.00 to 6.00 | 5.00 to 6.00 | > 7.00 |  |  |  | 1000 to 10000 | < 100
2 | Cc1cn2cc(NC(=O)c3ccc(N4CCNCC4)c4ccnnc34)nc2c(C)n1 [Compound 121] | < 5.00 | 6.00 to 7.00 | 6.00 to 7.00 | < 5.00 | < 5.00 | 6.00 to 7.00 |  |  |  | > 10000 | 1000 to 10000
3 | CNC1[C@@H]2C[C@H]1N(c1ccc(C(=O)Nc3cc(F)c4nc(C)cn4c3)c3nnccc13)C2 (stereo partly shown) [Compound 148] | 5.00 to 6.00 | 5.00 to 6.00 | 5.00 to 6.00 | 5.00 to 6.00 | 5.00 to 6.00 | 5.00 to 6.00 |  |  |  | 1000 to 10000 | 1000 to 10000
4 | Cc1cn2cc(NC(=O)c3ccc(N4CC5(CN(C)C5)C4)c4ccnnc34)cc(F)c2n1 [Compound 132] | 5.00 to 6.00 | 6.00 to 7.00 | 6.00 to 7.00 | 5.00 to 6.00 | < 5.00 | > 7.00 |  |  |  | 1000 to 10000 | 100 to 1000

More lines, main results first:

Row | pIC50 [1] | pIC50 [2] | pIC50 [3] | pIC50 [4] | pIC50 [5] | pIC50 [6] | pIC50 [7] | pIC50 [8] | pIC50 [9] | Compound | AC50 [1] [nM] | AC50 [3] [nM]
5 | < 5.00 | 5.00 to 6.00 | 5.00 to 6.00 | < 5.00 | < 5.00 | 6.00 to 7.00 |  |  |  | Cc1cn2cc(NC(=O)c3c(F)cc(N4CCNCC4)c4ccnnc34)cc(F)c2n1 [Compound 350] | > 10000 | 1000 to 10000
6 |  |  |  |  |  |  | < 5.00 | < 5.00 | < 5.00 | COCCOc1ncc2c(N3CCNCC3)ccc(C(=O)Nc3cc(F)c4nc(C)cn4c3)c2n1 [Compound 180, N-{8-fluoro-2-methylimidazo[1,2-a]pyridin-6-yl}-2-(2-methoxyethoxy)-5-(piperazin-1-yl)quinazoline-8-carboxamide; trifluoroacetic acid] |  | 
7 | < 5.00 | 5.00 to 6.00 | 5.00 to 6.00 | < 5.00 | < 5.00 | > 7.00 |  |  |  | Cc1cn2cc(NC(=O)c3ccc(N4C[C@@H](C)N[C@@H](C(C)C)C4)c4nccnc34)cc(F)c2n1 [Compound 264, N-{8-fluoro-2-methylimidazo[1,2-a]pyridin-6-yl}-8-[(3S,5R)-3-isopropyl-5-methylpiperazin-1-yl]quinoxaline-5-carboxamide 2,2,2-trifluoroacetate] | > 10000 | 100 to 1000
8 | 6.00 to 7.00 | > 7.00 | > 7.00 | 6.00 to 7.00 | 6.00 to 7.00 | > 7.00 |  |  |  | COc1ncc2c(N3C[C@H](C)N[C@@H](C)C3)ccc(C(=O)Nc3cc(F)c4nc(C)cn4c3)c2n1 [Compound 386] | 100 to 1000 | < 100
9 | < 5.00 | 6.00 to 7.00 | 6.00 to 7.00 | < 5.00 | < 5.00 | > 7.00 |  |  |  | CCc1cc2c(N3CCNCC3)ccc(C(=O)Nc3cc(F)c4nc(C)cn4c3)c2nn1 [Compound 185, 3-ethyl-N-{8-fluoro-2-methylimidazo[1,2-a]pyridin-6-yl}-5-(piperazin-1-yl)cinnoline-8-carboxamide] | > 10000 | 100 to 1000

From patent publication US20240409536A1, “COMPOUNDS AND METHODS FOR MODULATING SPLICING” (REMIX THERAPEUTICS INC., priority 2021, published 2024)
